The text below walks through data of patent US20160311886A1, “Constructs Binding to Phosphatidylserine and Their Use in Disease Treatment and Imaging” (Board of Regents, The University of Texas System, priority 2005, published 2016).

As a reminder, the cell viability is a per cent measure of how many cells are alive, often set against a control.

In one series the test system is bEnd.3 endothelial cells. Put plainly: H2O2 induction of PS, anti-PS staining and Trypan Blue exclusion.
Another series relates to ABAE cells. Put plainly: Induction of PS exposure, 125I-annexin V binding. The class given is cell-based, bovine. Conditions: ABAE and bEnd.3 cells, immunohistochemically. How it is done: All reagents were diluted in medium containing 10% serum and incubated with the cells at 37° C. for 24 h.
To study the effect of hypoxia, cells were seeded on 24 well plates and were incubated in a humidified normoxic atmosphere (21% O2, 5% CO2) for 48 h before being transferred to a humidified hypoxic atmosphere (1% O2, 5% CO2, 94% N2) in a sealed chamber (Billups Rothenberg Inc., Del Mar, Ca). Cells were incubated in a hypoxic chamber for 24 h at 37° C. and were then returned to a normoxic environment for 4 h at 37° C. The cells were compared to a parallel culture from an identical passage, seeded on the same day and maintained entirely under normoxic conditions. In some studies, IL-1α (10 ng/ml) and TNFα (20 ng/ml) were added to the medium before transfer to the hypoxic chamber.
After treatment with the reagents described above, treated and control cells were incubated with 7.1 pmoles of ^125I-labeled annexin V (200 μl/well) in the binding buffer. After 2 h incubation at room temperature, cells were washed extensively and dissolved in 0.5 M of NaOH. The entire volume of 0.5 ml was transferred to plastic tubes and counted in a gamma counter. Non-specific binding was determined in the presence of 5 mM EDTA and was subtracted from experimental values. The results were expressed as net pmoles of cell-bound annexin V, normalized per 1×10^6 cells.
Maximal binding of annexin V was determined on cells simultaneously treated with actinomycin D and TNFα (50 ng/ml of each component). As has been previously reported, these agents cause apoptosis and PS exposure in 90-100% of endothelial cells (Lucas et al., 1998). Basal binding of ^125I-annexin V to untreated cells was determined in the presence of medium with 10% serum. The amount of ^125I-annexin V that bound to the untreated cultures was subtracted from that in the treated cultures. Exposure of PS was calculated according to the following formula: cell-bound annexin V (pmoles) under experimental conditions divided by maximal annexin V binding (pmoles), multiplied by 100. Each study was performed in duplicate and was performed at least three times. Mean values were calculated. The SE of the mean values from three separate experiments was less than 5%.

Series [1] concerns drug-resistant breast tumors. Put plainly: 3G4 and cisplatin against drug-resistant breast tumors. The class given is in vivo, mouse. The conditions noted are these: treated after day 20. The text has this: Mice were inoculated with drug-resistant breast tumors and treated after day 20.
In a further series the test system is HUVEC and HMVEC. Put plainly: Docetaxel-induced PS exposure on endothelial cells, FACS. The class given is cell-based, human. The protocol: The induction of PS exposure on endothelial cells by subclinical concentrations of docetaxel was examined in vitro by FACS analysis. […] […] Docetaxel incubations for 48 and 72 hrs were also conducted.
Another series deals with tumor vessels. Put plainly: Docetaxel-induced PS exposure on tumor vessels. In kind it is in vivo, mouse. The conditions noted are these: after docetaxel treatment; 35% before. The text has this:
In such studies, docetaxel treatment of mice increased the percentage of tumor vessels that expose anionic phospholipids from 35% to 60%. No induction of PS was observed on vessels in normal tissues even after systemic treatment with docetaxel.

Series [2] deals with 3LL, Colo26, MDA-MB-435, B16, Meth A cells. Put plainly: Docetaxel-induced PS exposure on tumor cell lines, FACS. In kind it is cell-based, mouse, human. Conditions: 10 nM, 24 hrs. How it is done: The in vitro induction of PS exposure by subclinical concentrations of docetaxel was also examined by FACS analysis using a panel of tumor cell lines. Mouse lewis lung carcinoma 3LL, mouse colon carcinoma Colo26 and human breast cancer MDA-MB-435 cells were treated with 10 nM of docetaxel for 24 hrs and examined by FACS. […] Docetaxel incubations for 48 and 72 hrs were also conducted.

Series [3] relates to Pan02 mouse pancreatic adenocarcinoma. Put plainly: 3G4 and gemcitabine, pancreatic cancer. The class given is in vivo. The conditions noted are these: 3G4 100 μg, gemcitabine 3.5 mg; day 22. How it is done: Pan02 mouse pancreatic adenocarcinoma cells were injected into the pancreas of immunocompetent C57BL/6 mice. Treatment was started on day 5 after tumor cell injection. […] Gemcitabine is a pyrimidine anti-metabolite. The animals were sacrificed at day 22 after tumor cell injection, and the tumor weight determined.

The nature of series [4]: Administration to atherosclerotic rabbits. Conditions: rabbit, in vivo.
The nature of series [5]: Serum dependence of binding to PS. The protocol: The serum dependence or independence of the antibodies is also set forth in Table 2 (see also, Example XXX).
The 1B9, 2G7 and 7C5 antibodies behave essentially the same. These antibodies recognize only PS and require serum or serum proteins for binding to PS. The binding of 1B9, 2G7 and 7C5 to various phospholipids in the present example was assayed only in the presence of 10% bovine serum, whereas binding of the other antibodies was tested either in the absence or in the presence of serum.

The next series relates to MDA-MB-435 breast tumors. Put plainly: 3G4 and chimeric 3G4 tumor treatment. In kind it is in vivo, mouse. Conditions: MD-MBA-435s; IP 800 μg day 15, 200 μg every two to three days, 400 μg day 35. How it is done:
Tumors were also established using MD-MBA-435s cells and treated as described above. […] The treatment of large L540 tumors, MDA-MB-231 and MD-MBA-435s tumor cells for 60 days was also effective. The antibodies caused tumor vascular injury, thrombosis and necrosis and retarded tumor growth, with no evidence of toxicity.
MD-MBA-435s lucerifase cells were obtained from Dr. Angels Sierra Jimenez, Barcelona, Spain and were grown in 10% DMEM. Mice were injected with tumor cells as described as above, and at 2 weeks post injection, the tumors were measured and the volume recorded. […] Treatment was initiated by IP injection (800 μg) at day 15 and continued with injections of 200 μg every two to three days until the final injection of 400 μg at day 35. Tumor volumes and mouse body weights were measured on injection days. Mice were sacrificed and perfused with saline for 12 minutes. The organs and tumor were removed, snap-frozen in liquid nitrogen and the tumor sectioned for immunohistochemistical analysis.
Groups of 8-10 female SCID mice were injected subcutaneously with 2×10^7 L540 cells or orthotopically with 1×10^7 MDA-MB-435 or MDA-MB-231 cells. BALB/c mice were injected subcutaneously with 1×10^6 Meth A cells. […] Animals were monitored three times a week for tumor size and body weight. […]

Another series can be described thus: Monkey safety studies. In kind it is in vivo, cynomolgus monkeys. The conditions noted are these: repeat dosing. How it is done: This is 100 times the calculated therapeutic dose ([…]).
A further series concerns WiDr (colon carcinoma). Put plainly: WiDr colon carcinoma model. The conditions noted are these: 100 μg 3×/week from day 5; preliminary study. The class given is in vivo, mouse. The protocol: Treatment was started on day 5, when the tumors were small (10 mice per group). 100 μg of each antibody was injected 3×/week and tumor growth monitored.
A short description of series [6]: Phospholipid specificity ELISA. The class given is binding. The protocol: The specificity of the antibodies was determined by ELISA using plates coated with the following phospholipids: PS, phosphatidylserine; PE, phosphatidylethanolamine; PI, phosphatidylinositol; PA, phosphatidic acid; PG, phosphatidylglycerol; PC, phosphatidylcholine; CL, cardiolipin; and SM, sphingomyelin.
Background: ELISA stands for enzyme-linked immunosorbent assay.

The next series deals with mCMV RVG102. Put plainly: Survival of mCMV-infected mice. The class given is in vivo, mouse. The conditions noted are these: past 90 days post infection; untreated 25%.
For series [7], the system named is ABAE cells with exposed PS. Put plainly: Live-cell binding assay on LPC-treated endothelial cells. The class given is cell-based, bovine. How it is done: Adult bovine aortic endothelial (ABAE) cells were maintained in DMEM supplemented with 10% FBS and 2 mM L-glutamine. ABAE cells were removed from subconfluent cultures by brief exposure to 0.25% trypsin/0.02% EDTA, and 8-well chamber slides were seeded with 2×10^4 cells/well. Following overnight culture, cells were washed gently with PBS and treated with 200 μM lysophosphatidylcholine (LPC) to induce PS exposure.
PS exposure was determined by immunofluorescence staining. Cells were washed thoroughly in PBS, fixed in 4% paraformaldehyde (w/v), and incubated with a biotin-conjugated anti-mouse secondary antibody. Next, cells were incubated with FITC-conjugated streptavidin (Jackson Immunoresearch) to detect antibody binding. Cells were then permeablized with 0.1% Triton-X100 in PBS and counterstained with Texas Red-conjugated phalloidin (Molecular Probes, Eugene, Oreg.), and 4′, 6-diamidino-2-phenylindole (DAPI; Molecular Probes). Images were captured using a Coolsnap digital camera (Photometrics, Tucson, Ariz.) mounted on a Nikon microscope and processed with MetaVue software (Universal Imaging Corporation, Downingtown, Pa.).
The area of antibody binding was determined using MetaVue image analysis software, which is able to quantify the number of illuminated pixels in an image. Images of FITC fluorescence were used to quantify antibody binding. Corresponding images of DAPI fluorescence were used to normalize the FITC images for the number of cells present in the field. A small FITC/DAPI ratio indicates a small antibody binding area, whereas a large FITC/DAPI ratio indicates a large binding area. The FITC/DAPI ratios were used to determine increases or decreases in antibody binding area relative to a basal amount of antibody binding under the selected conditions. Five images at 200× magnification were used for each analysis. Data are presented as average relative FITC/DAPI ratios with error bars representing the standard deviation.
Cells were then washed, fixed, and stained with fluorescent markers to visualize binding of antibody to the cell surface.

Series [8] can be described thus: Binding of ch3G4 and 2aG4 to phospholipid-coated ELISA plates. The conditions noted are these: vs murine 3G4.
The test system of series [9] is U937 cells infected with Vaccinia virus. The class given is cell-based. The conditions noted are these: m.o.i of 2, 2 days.
In a further series the target is T1, human β2GPI (Homo sapiens, UniProt P02749).
T1 construct: Human β2GPI (hβ2GP1) was purified from human plasma essentially as described previously; from tissue; host or cells: pooled human plasma
T1 sequence (P02749 20-345): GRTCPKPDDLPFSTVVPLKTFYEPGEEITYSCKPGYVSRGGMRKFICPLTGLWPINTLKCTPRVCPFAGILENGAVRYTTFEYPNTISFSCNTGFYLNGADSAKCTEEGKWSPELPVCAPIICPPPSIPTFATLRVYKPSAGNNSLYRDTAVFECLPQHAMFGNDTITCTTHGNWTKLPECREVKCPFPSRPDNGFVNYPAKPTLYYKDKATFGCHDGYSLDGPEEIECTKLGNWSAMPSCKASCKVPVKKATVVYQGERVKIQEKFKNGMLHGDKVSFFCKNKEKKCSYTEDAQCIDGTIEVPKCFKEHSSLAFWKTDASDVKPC
Put plainly: Anti-hβ2GPI ELISA. The class given is binding. How it is done: The assay was performed as described above with the following modifications. hβ2GPI, nicked hβ2GPI, or recombinant hβ2GPI peptides were coated on 96-well Immunlon 2HB microtiter plates overnight at a concentration of 10 μg/ml. Plates were then blocked in 1% OVA for 1 hr. at room temperature. […] Plates were incubated for 1 hr. at 37° C. and antibody binding was detected. All ELISA studies were performed at least three times.

Series [10] has as its system syngeneic prostatic tumors. Put plainly: Bavituximab in rats with syngeneic prostatic tumors. Conditions: rat, in vivo.

Regarding `OO` [Hydrogen peroxide, hydrogen peroxide], the cell viability is given as 50-60% in the series with bEnd.3 endothelial cells (H2O2 at high concentrations) and 95% with bEnd.3 endothelial cells (low levels of H2O2, identical to untreated control). In addition, the “cells that bound biotinylated annexin V” value in the series with ABAE cells is “More than 70%”.

For `N.N.[Cl][Pt][Cl]` [cisplatin, reference compound], in series [1], the anti-tumor response result is listed as “tumor growth was slowed”.

Turning to `CC(=O)O[C@@]12CO[C@@H]1C[C@H](O)[C@@]1(C)C(=O)[C@H](O)C3=C(C)[C@@H](OC(=O)[C@H](O)[C@@H](NC(=O)OC(C)(C)C)c4ccccc4)C[C@@](O)([C@@H](OC(=O)c4ccccc4)[C@H]21)C3(C)C` [docetaxel], the “externalization of anionic phospholipids on HUVEC” value with HUVEC and HMVEC (20 pM) is “caused anionic phospholipids to be externalized without inducing apoptosis”. The “3G4 binding vs untreated cells” value with HUVEC and HMVEC (10 nM, 24 hrs) is “significant increase in 3G4 binding”; in series [2], “significant increase in 3G4 binding”. For the same molecule, the “tumor vessels that expose anionic phospholipids” value in the series on tumor vessels turned out to be 60%.

Turning to `Nc1ccn([C@@H]2O[C@H](CO)[C@@H](O)C2(F)F)c(=O)n1` [gemcitabine, reference compound], the “anti-tumor effect (tumor weight)” value in series [3] is reported as “significant anti-tumor effect”.

Take “ch3G4: Human-mouse chimeric (human IgG1) version of 3G4, termed bavituximab”: the “safety in atherosclerotic rabbits” value is “did not exacerbate aortic atherosclerotic lesions” in series [4] (listed as chimeric version of the 3G4 antibody) and “shown to be safe” in series [4] (listed as humanized 3G4 antibody). Besides, the “Serum cofactor?” value in series [5] is “Yes”. Further, the “tumor growth vs control” value in the series with MDA-MB-435 breast tumors was “effectively retarded tumor growth”. For the same molecule, the “No adverse effect level (NOAEL)” value in “Monkey safety studies” was “approximately 10 mg/kg/week”. Also, the tumor growth result in the series on WiDr (colon carcinoma) is listed as “slowed tumor growth to essentially the same degree”. In addition, the “Relative Strength of Reactivity on ELISA” value in series [6] is reported as “PS = PA = PI = PG = CL >> PE”. Further, the survival with mCMV RVG102 was 80%. For the same molecule, the “binding to LPC-treated ABAE cells” value was “widespread binding” in series [7] (10% MS plus purified hβ2GPI) and “no antibody binding was detected” in series [7] (10% MS, no hβ2GPI). For the same molecule, in series [8], the “binding to phospholipid-coated ELISA plates” value is “bound at least as did well as the murine 3G4”. For the same molecule, the “FACS shift vs uninfected cells” value in [9] is “significant shift”. The “binding to nicked hβ2GPI coated on microtiter plates” value in the series with human β2GPI was “binds nicked hβ2GPI as well as hβ2GPI”. Besides, the “tumor homing of radiolabeled antibody” value in [10] is on record as “shown to home to syngeneic prostatic tumors in rats”. Also, the tumor perfusion result in series [10] is listed as “Reduced tumor perfusion”.
